Like-named read-outs stand apart in the source and are kept apart here.
What was measured:
[1] = tested on: mouse (MC3T3-E1) and human (TE-85) osteoblast-line cells; type: cell-based
In short: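 Proliferation was read as ^3H-thymidine (0.4 μCi) uptake during a 4 h pulse, which started 20 h after compound addition. Before dosing, cells sat 24 h in 0.1% FBS. Values are % times control (100%).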

[2] = biological target: T1, progestin receptor from rabbit uterus (Oryctolagus cuniculus, UniProt P06186); assay: Progestin receptor binding (3H-R5020 displacement); conditions: rabbit uterine cytosol, 4° C., 18 h, read-out: IC50: Binding affinity for the progestin receptor from rabbit uterus
T1 construct: Cytosolic progestin receptor were obtained by mixing rabbit uterine tissue with a Tris buffer; from tissue; host or cells: rabbit uterus cytosol
T1 sequence (P06186 whole entry): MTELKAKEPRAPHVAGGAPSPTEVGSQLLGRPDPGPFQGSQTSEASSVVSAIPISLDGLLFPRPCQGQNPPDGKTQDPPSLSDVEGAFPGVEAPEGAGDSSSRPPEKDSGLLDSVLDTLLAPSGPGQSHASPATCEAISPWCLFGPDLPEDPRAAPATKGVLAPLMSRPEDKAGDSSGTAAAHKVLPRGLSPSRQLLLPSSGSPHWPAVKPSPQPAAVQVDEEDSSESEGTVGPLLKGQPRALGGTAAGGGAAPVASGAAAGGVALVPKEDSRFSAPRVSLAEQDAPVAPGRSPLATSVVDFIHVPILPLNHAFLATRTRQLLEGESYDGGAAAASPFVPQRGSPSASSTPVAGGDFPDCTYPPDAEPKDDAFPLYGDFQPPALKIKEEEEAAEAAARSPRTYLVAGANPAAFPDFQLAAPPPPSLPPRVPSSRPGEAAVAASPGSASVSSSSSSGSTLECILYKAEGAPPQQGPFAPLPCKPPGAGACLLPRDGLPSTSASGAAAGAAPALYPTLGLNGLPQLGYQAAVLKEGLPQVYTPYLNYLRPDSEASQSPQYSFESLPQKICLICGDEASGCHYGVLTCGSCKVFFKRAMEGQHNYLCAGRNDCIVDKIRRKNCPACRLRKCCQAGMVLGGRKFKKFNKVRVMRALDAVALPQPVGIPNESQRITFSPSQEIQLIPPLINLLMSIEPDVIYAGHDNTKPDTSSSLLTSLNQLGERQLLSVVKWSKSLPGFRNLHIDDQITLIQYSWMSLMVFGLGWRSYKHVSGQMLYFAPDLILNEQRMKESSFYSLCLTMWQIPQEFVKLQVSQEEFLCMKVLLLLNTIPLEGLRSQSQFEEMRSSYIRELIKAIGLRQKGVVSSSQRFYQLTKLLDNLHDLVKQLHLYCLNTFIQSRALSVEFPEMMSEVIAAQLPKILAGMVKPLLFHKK
In short: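 Displacement of the radioligand 3H-R5020 was measured in cytosol from homogenized rabbit uterus (pH 7.4 Tris/EDTA/DTT/molybdate buffer), with compounds at 5% final DMSO and about 18 h at 4 °C. Charcoal removed free ligand, scintillation counting quantified bound ligand, and IC50 was the concentration displacing half.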

Row | Structure (SMILES) | Osteoblast Cell Proliferation, 3H-thymidine incorporation vs control (100%) ([1]; 10^-6) | Osteoblast Cell Proliferation, 3H-thymidine incorporation vs control (100%) ([1]; 10^-7) | Osteoblast Cell Proliferation, 3H-thymidine incorporation vs control (100%) ([1]; 10^-8) | Osteoblast Cell Proliferation, 3H-thymidine incorporation vs control (100%) ([1]; 10^-9) | Osteoblast Cell Proliferation, 3H-thymidine incorporation vs control (100%) ([1]; 10^-10) | IC50 [2]
1 | CCOP(=O)(c1ccccc1)N1CCCC(c2ccccc2)=N1 (stereo not shown) [Compound 253] | 151% | 124% | 143% | 142% | 157% | 688 nM
2 | COc1ccc(C(=O)N2CCCC(c3ccccc3)=N2)cc1 [Compound 183] | 88% | 133% | 131% | 136% | 135% | 100000 nM
3 | O=S(=O)(c1ccc(Cl)c(Cl)c1)N1CCCC(c2ccc(Cl)c(C(F)(F)F)c2)=N1 [Compound 81] |  | 110% | 119% | 119% | 128% | 16.5 nM
4 | O=S(=O)(c1ccccc1)N1CCCC(c2ccc3c(c2)CCCC3)=N1 [Compound 90] | 90% | 95% | 68% | 68% | 42% | 71.7 nM
5 | Cc1ccc(S(=O)(=O)N2N=C(c3ccccc3)CC3CCCC32)cc1 (stereo not shown) [Compound 156, 4,4a,5,6,7,7a-Hexahydro-3-phenyl-1-(4-methylbenzenesulfonyl)-1H-cyclopenta[c]pyridazine] | 127% | 124% | 126% | 136% | 183% | 1000 nM
6 | O=S(=O)(c1cc(C(F)(F)F)cc(C(F)(F)F)c1)N1CCCC(c2ccc(Cl)cc2)=N1 [Compound 33] | 96% | 107% | 117% | 127% | 152% | 9 nM
7 | COc1ccc(C2=NN(S(=O)(=O)c3ccc(C)cc3)CCC2)cc1 [Compound 3] | 92% | 110% | 115% | 138% | 118% | 10000 nM
8 | O=C(c1ccc(Cl)cc1)N1CCCC(c2ccc(F)cc2)=N1 [Compound 204] | 79% | 109% | 105% | 101% | 109% | 3000 nM
9 | O=S(=O)(c1ccc2ccccc2c1)N1CCCC(c2cccc(Cl)c2)=N1 [Compound 94] | 110% | 85% | 90% | 110% | 130% | 14.6 nM
10 | CC1CC(c2ccccc2)=NN(S(=O)(=O)c2cc(Cl)ccc2Cl)C1 (stereo not shown) [Compound 144] |  | 112% | 122% | 117% | 108% | 71.7 nM
11 | O=S(=O)(c1ccc(F)cc1F)N1CCCC(c2ccc(Cl)cc2)=N1 [Compound 32] | 89% | 103% | 105% | 111% | 118% | 45 nM
12 | COP(=O)(c1ccccc1)N1CCCC(c2ccccc2)=N1 (stereo not shown) [Compound 252] | 75% | 86% | 79% | 97% | 86% | 10000 nM
13 | O=C(c1ccc(Cl)c(Cl)c1)N1CCCC(c2ccc(F)cc2)=N1 [Compound 205] | 92% | 115% | 140% | 141% | 138% | 263 nM
14 | O=P(OC1CCCC1)(c1ccccc1)N1CCCC(c2ccc(Cl)c(Cl)c2)=N1 (stereo not shown) [Compound 257] | 86% | 114% | 122% | 112% | 114% | 300 nM
15 | COC12CCCCC1CC(c1ccccc1)=NN2S(=O)(=O)c1ccc(C)cc1 (stereo not shown) [Compound 159, 1,4,4a,5,6,7,8,8a-Octahydro-8a-methoxy-1-(4-methyl-benzenesulfonyl)-3-phenyl-1,2-diazanapthalene] | 97% | 100% | 91% | 97% | 105% | 1380 nM
16 | O=S(=O)(c1ccc2ccccc2c1)N1CCCC(c2ccc(F)cc2)=N1 [Compound 25] | 87% | 106% | 101% | 99% | 90% | 49 nM
17 | O=S(=O)(c1ccccc1)N1CCCC(c2ccc(Cl)c(Cl)c2)=N1 [Compound 43] | 92% | 92% | 99% | 98% | 85% | 3.3 nM
18 | O=[N+]([O-])c1cccc(S(=O)(=O)N2CCCC(c3ccc(Cl)cc3)=N2)c1 [Compound 14] | 96% | 109% | 118% | 136% | 139% | 7 nM
19 | O=C(c1cccc(C(F)(F)F)c1)N1CCCC(c2ccc(Cl)c(Cl)c2)=N1 [Compound 218] | 112% | 115% | 119% | 107% | 109% | 1980 nM
20 | COc1ccc(C2=NN(C(=O)c3ccc(Cl)cc3)CCC2)cc1 [Compound 184] | 84% | 102% | 113% | 146% | 131% | 100000 nM
21 | Cc1ccc(S(=O)(=O)N2CCCC(c3ccc(F)cc3)=N2)cc1 [Compound 9] | 65% | 94% | 128% | 102% | 119% | 362 nM
22 | O=C(c1ccc([N+](=O)[O-])cc1)N1CCCC(c2ccc(Cl)c(Cl)c2)=N1 [Compound 217] | 86% | 87% | 91% | 72% | 52% | 102 nM
23 | O=S(=O)(c1ccccc1)N1CCCC(c2ccc(-c3ccccc3)cc2)=N1 [Compound 86] | 100% | 114% | 94% | 103% | 101% | 228 nM

Source: patent US5684151A, “1-arylsulphonyl, arylcarbonyl and 1-arylphosphonyl-3-phenyl-1,4,5,6-tetrahydropyridazines” (priority 1995, dated 1997)
